Data as given in patent EP4342885A1, “N-(3-(AMINOMETHYL)-PHENYL)-5-(4-PHENYL)-5-(TRIFLUOROMETHYL)-4,5-DIHYDROISOXAZOL-3-AMINE DERIVATIVES AND SIMILAR COMPOUNDS AS PESTICIDES” (priority 2022, dated 2024).

Experiments:
Type in all cases: in vivo
Heliothis virescens = assay: Tobacco budworm (Heliothis virescens) control, 96-well microtiter plate insect diet with eggs; details: 120 h, read-out: mortality in comparison with untreated controls
Procedure: For evaluating control of Tobacco Budworm, the test unit consisted of 96-well-microtiter plates containing an insect diet and 15-25 H. virescens eggs. The compounds were formulated using a solution containing 75% v/v water and 25% v/v DMSO. Different concentrations of formulated compounds were sprayed onto the insect diet at 10µl, using a custom-built micro atomizer, at two replications. After application, microtiter plates were incubated at about 28 ± 1°C and about 80 ± 5 % relative humidity for 5 days. Egg and larval mortality was then visually assessed.

Aedes aegypti = assay: whole plant or invertebrate; details: 48 h, larval mortality, 2 days, read-out: mortality in comparison with untreated controls
Procedure: For evaluating control of Yellow Fever Mosquito, the test unit consisted of 96-well-microtiter plates containing 200µl of tap water per well and 5-15 freshly hatched A. aegypti larvae. The active compounds were formulated using a solution containing 75% (v/v) water and 25% (v/v) DMSO. Different concentrations of formulated compounds or mixtures were sprayed onto the insect diet at 2.5µl, using a custom-built micro atomizer, at two replications.
After application, microtiter plates were incubated at 28 ± 1°C, 80 ± 5 % RH for 2 days. Larval mortality was then visually assessed.

Anthonomus grandis = assay: Boll weevil (Anthonomus grandis) control, 96-well microtiter plate insect diet with eggs; details: 120 h, read-out: mortality in comparison with untreated controls
Procedure: For evaluating control of boll weevil, the test unit consisted of 96-well-microtiter plates containing an insect diet and 5-10 A. grandis eggs.
The compounds were formulated using a solution containing 75% v/v water and 25% v/v DMSO. Different concentrations of formulated compounds were sprayed onto the insect diet at 5µl, using a custom-built micro atomizer, at two replications.
After application, microtiter plates were incubated at about 25 ± 1°C and about 75 ± 5 % relative humidity for 5 days. Egg and larval mortality were then visually assessed.

Plutella xylostella = assay: Diamond back moth (Plutella xylostella) control, 96-well microtiter plate insect diet with eggs; details: 120 h, read-out: mortality in comparison with untreated controls
Procedure: For evaluating control of […] (Plutella xylostella) the test unit consisted of 96-well-microtiter plates containing an insect diet and 15-25 P. xylostella eggs.
The compounds or mixtures were formulated using a solution containing 75% water and 25% DMSO. Different concentrations of formulated compounds or mixtures were sprayed onto the insect diet at 5µl, using a custom-built micro atomizer, at two replications.
After application, microtiter plates were incubated at 28 ± 1°C, 80 ± 5 % RH for 5 days. Egg and larval mortality was then visually assessed.

Myzus persicae = assay: Green peach aphid (Myzus persicae), mixed life stages, systemic test via artificial diet under membrane; details: 72 h, read-out: mortality in comparison with untreated controls
Source text: For evaluating control of Green Peach Aphid through systemic means the test unit consisted of 96-well-microtiter plates containing liquid artificial diet under an artificial membrane. The compounds were formulated using a solution containing 75% v/v water and 25% v/v DMSO. Different concentrations of formulated compounds were pipetted into the aphid diet, using a custom-built pipette, at two replications. After application, 5 - 8 adult aphids were placed on the artificial membrane inside the microtiter plate wells. The aphids were then allowed to suck on the treated aphid diet and incubated at about 23 ± 1°C and about 50 ± 5 % relative humidity for 3 days. Aphid mortality and fecundity was then visually assessed.

Measured: mortality at 800 ppm

O=C(NCc1cc(NC2=NOC(c3cc(Cl)c(F)c(Cl)c3)(C(F)(F)F)C2)ccc1OC(F)(F)F)C1CC1 (stereo not shown) [I-18]
≥ 75%: all assays above

Cc1ccc(NC2=NOC(c3cc(Cl)c(F)c(Cl)c3)(C(F)(F)F)C2)cc1CNC(=O)C1CC1 (stereo not shown) [I-20]
≥ 75%: all assays above

O=C(NCc1cc(NC2=NOC(c3ccc(F)c(Cl)c3)(C(F)(F)F)C2)ccc1Cl)C1CC1 (stereo not shown) [I-21]
≥ 75%: all assays above

O=C(NCc1cc(OC2=NOC(c3cc(Cl)c(F)c(Cl)c3)(C(F)(F)F)C2)ccc1F)C1CC1 (stereo not shown) [I-22]
≥ 75%: all assays above

O=C(NCc1cc(NC2=NOC(c3ccc(F)c(Cl)c3)(C(F)(F)F)C2)ccc1Cl)C1CCC1 (stereo not shown) [I-23]
≥ 75%: all assays above

CC(C)C(=O)NCc1cc(NC2=NOC(c3ccc(F)c(Cl)c3)(C(F)(F)F)C2)ccc1Cl (stereo not shown) [I-25]
≥ 75%: all assays above

CC(C)CC(=O)NCc1cc(NC2=NOC(c3ccc(F)c(Cl)c3)(C(F)(F)F)C2)ccc1Cl (stereo not shown) [I-28]
≥ 75%: all assays above

N#CC1(C(=O)NCc2cc(NC3=NOC(c4ccc(F)c(Cl)c4)(C(F)(F)F)C3)ccc2Cl)CC1 (stereo not shown) [I-32]
≥ 75%: all assays above

CCOC(=O)N(C1=NOC(c2cc(Cl)c(F)c(Cl)c2)(C(F)(F)F)C1)c1ccc(F)c(CNC(=O)C2CC2)c1 (stereo not shown) [I-42]
≥ 75%: all assays above

O=C(NCc1cc(NC2=NOC(c3cc(Cl)cc(Cl)c3)(C(F)(F)Cl)C2)ccc1F)C1CC1 (stereo not shown) [I-43]
≥ 75%: all assays above

O=C(NCc1cc(NC2=NOC(c3ccc(F)c(Cl)c3)(C(F)(F)F)C2)ccc1Cl)C1CSC1 (stereo not shown) [I-45]
≥ 75%: all assays above

O=C(NCc1cc(NC2=NOC(c3ccc(F)c(Cl)c3)(C(F)(F)F)C2)ccc1Cl)C1CC1(F)F (stereo not shown) [I-48]
≥ 75%: all assays above

CCC(=O)NCc1cc(NC2=NOC(c3ccc(F)c(Cl)c3)(C(F)(F)F)C2)ccc1Cl (stereo not shown) [I-50]
≥ 75%: all assays above

O=C(N[C@H]1CCc2ccc(NC3=NOC(c4ccc(F)c(Cl)c4)(C(F)(F)F)C3)cc21)C1CC1 (stereo partly shown) [III-1]
≥ 75%: all assays above
